Reference: patent US12133878B2, “Pharmaceutical compositions having a selected release duration” (Foresee Pharmaceuticals Co., Ltd., priority 2017, dated 2024)
Where a name gives a salt, the structure may show the parent alone.

Tests used:
[1] = for molecular weight of PLGA compared with blank control: both 4° C. and RT, after 12 months
Method: Poly(DL-lactide-co-glycolide) (PLGA) of an 85/15 ratio of lactide to glycolide (DLPLG85/15, IV: 0.28) with a lauryl ester end group was dissolved in N-methyl-2-pyrrolidone (NMP) to give a 50% solution by weight. […] The injectable compositions were filled into 1.2 mL polypropylene syringes with luer-lock tips. Then the pre-filled syringes were sealed using luer-lock caps. The capped syringes were packaged in a container and sealed in a plastic bag under vacuum and then stored at 4° C. and room temperature (˜22° C.) for up to 18 months. The injectable composition was sampled at 24 h, 1, 2, 3, 6, 12, and 18-month time points. Purity of leuprolide in the sample was determined by HPLC. Molecular weight of the polymer was determined by gel permeation chromatography (GPC) using polystyrene standards with known molecular weights.

[2] = In vitro release of leuprolide in PBS at pH 7.4 at 37° C. (HPLC); format: physicochemical; details: for release of leuprolide completed: Example 5, FIG. 3, PLA 16,000 Dalton 60% in NMP, about 12% leuprolide, gamma 25 kGy
Method: The product is supplied in 2 separate syringes with the leuprolide acetate in one syringe and the polymer solution in the other. The two are mixed immediately prior to injection. The polymer solution contains a 50% 8515PLGA polymer solution in NMP. The molecular weight of the polymer is about 20k dalton. […] The leuprolide mesylate was prepared from leuprolide acetate by ion exchange lyophilization process and contains a small amount of acetate. The formulation was mixed and stored in a single syringe. Another formulation was made with LAMS using a PLA polymer with a molecular weight of 15k dalton (PLA-1) and a polydispersity index (PDI) of 1.8. This formulation was also mixed and stored in a single syringe. […] The release sample was taken at predefined time points and analyzed by HPLC.
The in vitro release of leuprolide was tested from these two formulations. The in vitro release test was performed in PBS at pH 7.4 at 37° C. and the release of leuprolide over time was measured by HPLC. Briefly, an aliquot of the formulation (about 100 mg) was injected into 3 mL phosphate buffer saline solution at pH 7.4 with 0.1% sodium azide at 37° C. The receiving fluid was replaced at predefined time points with fresh buffer solution, and the removed buffer solution diluted 2-fold with phosphate buffer at pH 7.4 was analyzed for drug concentration by HPLC. The amount released at each time point was calculated.
The in vitro release of leuprolide was tested from several kits of Eligard® 45 mg. These kits contain 1 syringe with leuprolide acetate (LAAc) and one syringe of polymer solution (PLGA8515 in NMP). PLGA8515 used here was prepared with hexanediol as an initiator and has a molar ratio of DL-lactide to Glycolide=85:15. The PLGA8515 polymer has one hydroxyl end group at both ends of the polymer chain. The two syringes are connected and the contents are mixed immediately prior to injection.
Formulations were made with leuprolide mesylate (LAMS(1.6)) in order to achieve the delivery of leuprolide for a period of 3 months. The leuprolide mesylate was prepared from leuprolide formate by salt exchange lyophilization process and contains a small amount of formic acid. […] The removed release media was analyzed by HPLC for leuprolide content.
The in vitro release of leuprolide was tested from these two formulations. The in vitro release test was performed in PBS at pH 7.4 at 37° C. and the release of leuprolide was measured by HPLC over time. […]
Formulations designed for a release duration of one month were made with a 50:50PLGA polymer (MW 50k, PDI 4.0) in NMP using LAMS with a methane sulfonic acid to leuprolide ratio of 1.6:1 and 2.0:1. The formulations were stored at 25° C. and the peptide purity and polymer molecular weight were measured over time. […]

Molecule | molecular weight of PLGA decreased, comparing to blank control ([1]; 4° C., after 6 months) | release of leuprolide completed [2] [days] | in vitro release lasts longer versus leuprolide mesylate ([2]; Example 5, same PLA/NMP solution) | molecular weight of PLGA compared with blank control [1] | leuprolide released ([2]; Example 6, FIG. 4, polymer syringe from the Eligard 45 mg kit, at 112 days)
CCNC(=O)[C@@H]1CCCN1C(=O)[C@H](CCCNC(=N)N)NC(=O)[C@H](CC(C)C)NC(=O)[C@@H](CC(C)C)NC(=O)[C@H](Cc1ccc(O)cc1)NC(=O)[C@H](CO)NC(=O)[C@H](Cc1c[nH]c2ccccc12)NC(=O)[C@H](Cc1c[nH]cn1)NC(=O)[C@@H]1CCC(=O)N1 [leuprolide acetate, reference compound] | more than 10% | ~240 | more than 60 days |  | 
CCNC(=O)[C@@H]1CCCN1C(=O)[C@H](CCCNC(=N)N)NC(=O)[C@H](CC(C)C)NC(=O)[C@@H](CC(C)C)NC(=O)[C@H](Cc1ccc(O)cc1)NC(=O)[C@H](CO)NC(=O)[C@H](Cc1c[nH]c2ccccc12)NC(=O)[C@H](Cc1c[nH]cn1)NC(=O)[C@@H]1CCC(=O)N1 [leuprolide hydrochloride] |  |  |  | the same as that of the blank control | 
leuprolide mesylate |  | ~180 |  | the same as that of the blank control | > 99
